Key:
[1] = test system: plasmid (pcDNA3.1 empty vector) double strand DNA; test: Gel shift assay of DNA supercoiling disturbance by cisplatin; type: biochemical; details: 37° C. for 60 minutes; for effect on disturbance of double strand DNA supercoiling by cisplatin (CDDP): preincubation of plasmid with Na2Sn, then 60 μM CDDP
Method: To quantify the degree of DNA intercalation by cisplatin (CDDP) that disturbs DNA supercoiling, 1 μg of plasmid (pcDNA3.1 empty vector, #V79020, Invitrogen) was mixed with a predetermined concentration of Na2Sn (n=an integer of 1 to 4), and preincubated in 10 mM phosphate-buffered saline (PBS, pH6.0) at room temperature for 5 minutes. Then, a CDDP solution was added to the solution to obtain a final concentration of 60 μM. Thereafter, the mixed solution was incubated at 37° C. for 60 minutes. After the incubation, the reaction products in the mixed solution were separated by electrophoresis using 1% agarose gel for determination of the DNA secondary structure.
It was previously shown that cisplatin can disturb DNA supercoiling by being intercalated between bases of double-stranded DNA structures and causing structural changes (Non-patent Document 4). In this study, the present inventors determined in vitro that cisplatin induced change in the bulk molecular volume of supercoiling DNA, and the bulk molecular volume was recovered by addition of polysulfide (FIG. 3).
This can be inferred because of the enhanced reducing power of the polysulfide with the increase in the number of sulfur atoms.

[2] = test system: ovarian clear cell carcinoma (CCC); test: Effectiveness of the anticancer drug in ovarian clear cell carcinoma; type: in vivo
[3] = test system: ovarian serous carcinoma (SC); test: Effectiveness of the anticancer drug in ovarian serous carcinoma; type: in vivo

Compound | effect on disturbance of double strand DNA supercoiling by cisplatin (CDDP) [1] | effectiveness as an anticancer drug [2] | change in the bulk molecular volume of supercoiling double strand DNA ([1]; CDDP final concentration 60 μM, 1 μg plasmid, 1% agarose gel) | effectiveness as an anticancer drug [3]
[Na+].[Na+].[S-][S-] [Na2S2] | attenuated | – | – | –
[Na+].[Na+].[S-]S[S-] [Na2S3] | attenuated | – | – | –
[Na+].[Na+].[S-]SS[S-] [Na2S4] | attenuated | – | – | –
[Na+].[Na+].[S-2] [Na2S] | attenuated | – | – | –
N.N.[Cl][Pt][Cl] [cisplatin] | – | less effective | increased the bulk molecular volume of double strand DNA | more effective

From patent US20220365087A1, “METHOD FOR ACQUIRING DATA FOR DISTINGUISHING PRESENCE OF CANCER CELLS AND/OR DISTINGUISHING ANTICANCER DRUG RESISTANCE, METHOD FOR ACQUIRING PREDICTION DATA, USE OF DISTINCTION MARKER IN SAME, AND DISTINGUISHING KIT” (KEIO UNIVERSITY, priority 2019, published 2022)
